Measured values published in US12358983B2, “Combination of anti CD19 antibody with a BCL-2 inhibitor and uses thereof” (Incyte Corporation, priority 2016, dated 2025).

Test system: MEC-1 cells
Assay: Cytotoxicity (ADCC assay with NK effector cells) of MOR00208 and venetoclax alone and in combination in MEC-1 cells
Type: cell-based
Description: Cell lines tested: MEC-1 cells (DSMZ# ACC497). Culture conditions of cell lines used are according to supplier's information. Cell Medium: lscove's Modified Dulbecco's Medium (IMDM), Invitrogen, Cat No.: 31980; RPMI1640, Invitrogen, Cat No.: 31870; GlutaMAX, Invitrogen, CAT No.: 35050; FCS: Sigma CAT No.: F7524 LOT No.: 111M3396. NKs: RPMI1640, with GlutaMAX, Invitrogen, Cat No.: 31870, 10% FCS; Biocoll: Biochrome AG CAT No.: L6115 LOT No.: 0034D; MACS NK cell isolation kit: Miltenyi Biotec CAT No.: 130-092-657 LOT No.: 5150402327; venetoclax: Selleck Chem. CAT No.: S8048 LOT No.: S804803; FCS: Sigma CAT No.: F7524 LOT No.: 111M3396; and RefmAb33 (anti-RSV) with same Fc region as MOR00208.
The cytotoxic potential of MOR00208 and venetoclax alone and in combination were tested in the MEC-1 cell line (CLL). Target cell killing is measured using the following parameters: venetoclax mono treatment at concentrations of 3 μM, 6.5 μM, and 10 μM; MOR00208 mono treatment at concentrations of 0.01 pM, 0.1 pM, 1 pM, 10 pM, 100 pM and 10 nM, and the combination treatment of the listed venetoclax and MOR00208 concentrations. The following are used as controls: RefnnAb33, NK cells alone, MEC-1 cells alone or DMSO. In the venetoclax mono groups as well as in the MOR00208+venetoclax combination groups, target cells were pretreated with venetoclax or with DMSO control for 24 hours followed by removal of the dead cells prior to the ADCC assay. A dead cell removal kit was used to remove cells killed by the cytotoxic effect of venetoclax. The dead cell removal kit was implemented to mimick the removal of dead cells that also occurs in vivo and to prevent false negative interference of the dead cells with the subsequent ADCC assay. For the ADCC assay, target cells are counted and stained using CFSE at a final concentration of 1 μg/mL. For the control group, i.e. DMSO treated target cells, the effector: target (E:T) cell ratio was adjusted to 2:1, i.e. 1×10E6/nnL effector cells (NK cells) and 5×10E5/mL target cells (MEC-1 cells). […] The ADCC assays were performed as follows: using 96 well plates, 100 μL of MEC-1 target cell suspension was added per well, followed by 100 μL NK effector cell suspension per well. Mixed cell suspensions were centrifuged and resuspended in 100 μL antibody containing medium or the according control solution. The antibodies were diluted in a range of 10 nM-0.01 pM (corresponds to 1.5 μg/mL-1.5 pg/mL) in medium. The ADCC assays were incubated for 2 hours in a CO2-incubator at 37° C. After 10 minutes incubation on ice, 50 μL DAPI solution was added to each well (final concentration 1 μg/mL) and incubated for additional 10 minutes on ice. The ADCC measurements were performed on a BD FACSVerse instrument. Dead target cells were identified as DAPI positive cells.
Combination Index (CI) calculations are completed in order to determine synergy of the combination of the exemplified anti-CD19 antibody and venetoclax as compared to MOR00208 and venetoclax alone. Such calculations are described in Ting-Chao Chou, Theoretical Basis, Experimental Design, and Computerized Simulation of Synergism and Antagonism in Drug Combination Studies, Pharmacol Rev 58:621-681 (2006), which is incorporated by reference in its entirety and Chou TC, Talalay P, Quantitative analysis of dose-effect relationships: the combined effects of multiple drugs or enzyme inhibitors. Adv Enzyme Regul 22: 27-55 (1984), which is incorporated by reference in its entirety. The methods of Chou-Talalay are carried out using the CI-isobol method.
The median-effect equation models the effect of an inhibitor (such as a drug) as Fa/Fu=(D/D50)^m, where D is the dose, Fa and Fu is the fraction of the system affected and unaffected by the dose D (Fa+Fu=1); D50 is the dose producing the median effect (e.g. IC50, ED50, LD50). The constant m determines the shape of the dose-effect curve.

In the case of “MOR00208: anti-CD19 antibody; heavy chain SEQ ID NO: 14, light chain SEQ ID NO: 15”, the “Actual MOR00208 Effect” value (Exp 1, MOR00208 1.50E+00 μg/mL) is reported as 69.4 % dead cells, the “Actual MOR00208 Effect” value (Exp 1, MOR00208 1.50E−02 μg/mL) is reported as 66.8 % dead cells and the “Actual MOR00208 Effect” value (Exp 1, MOR00208 1.50E−03 μg/mL) is reported as 43.4 % dead cells. For the same substance, the “Actual MOR00208 Effect” value (Exp 1, MOR00208 1.50E−04 μg/mL) was 22.8 % dead cells, the “Actual MOR00208 Effect” value (Exp 1, MOR00208 1.50E−05 μg/mL) was 17.4 % dead cells and the “Actual MOR00208 Effect” value (Exp 1, MOR00208 1.50E−06 μg/mL) was 15.3 % dead cells. For the same substance, the “Theoretical MOR00208 Dose” value (Exp 1, same effect as MOR00208 1.50E+00 μg/mL + venetoclax 3.0 μM) was “* 1.00E+03^ μg/mL”, the “Theoretical MOR00208 Dose” value (Exp 1, same effect as MOR00208 1.50E+00 μg/mL + venetoclax 6.5 μM) was “* 1.00E+03^ μg/mL” and the “Theoretical MOR00208 Dose” value (Exp 1, same effect as MOR00208 1.50E+00 μg/mL + venetoclax 10.0 μM) was “* 1.00E+03^ μg/mL”. For the same substance, the “Theoretical MOR00208 Dose” value (Exp 1, same effect as MOR00208 1.50E−02 μg/mL + venetoclax 3.0 μM) was 0.0304 µg/mL, the “Theoretical MOR00208 Dose” value (Exp 1, same effect as MOR00208 1.50E−02 μg/mL + venetoclax 6.5 μM) was “* 1.00E+03^ μg/mL” and the “Theoretical MOR00208 Dose” value (Exp 1, same effect as MOR00208 1.50E−02 μg/mL + venetoclax 10.0 μM) was “* 1.00E+03^ μg/mL”. The “Theoretical MOR00208 Dose” value (Exp 1, same effect as MOR00208 1.50E−03 μg/mL + venetoclax 3.0 μM) was 0.00125 µg/mL, the “Theoretical MOR00208 Dose” value (Exp 1, same effect as MOR00208 1.50E−03 μg/mL + venetoclax 6.5 μM) was 0.00404 µg/mL and the “Theoretical MOR00208 Dose” value (Exp 1, same effect as MOR00208 1.50E−03 μg/mL + venetoclax 10.0 μM) was 0.00914 µg/mL. The “Theoretical MOR00208 Dose” value (Exp 1, same effect as MOR00208 1.50E−04 μg/mL + venetoclax 3.0 μM) was 0.000132 µg/mL, the “Theoretical MOR00208 Dose” value (Exp 1, same effect as MOR00208 1.50E−04 μg/mL + venetoclax 6.5 μM) was 0.00041 µg/mL and the “Theoretical MOR00208 Dose” value (Exp 1, same effect as MOR00208 1.50E−04 μg/mL + venetoclax 10.0 μM) was 0.000543 µg/mL. For the same substance, the “Theoretical MOR00208 Dose” value (Exp 1, same effect as MOR00208 1.50E−05 μg/mL + venetoclax 3.0 μM) was 1.41e-05 µg/mL, the “Theoretical MOR00208 Dose” value (Exp 1, same effect as MOR00208 1.50E−05 μg/mL + venetoclax 6.5 μM) was 8.47e-05 µg/mL and the “Theoretical MOR00208 Dose” value (Exp 1, same effect as MOR00208 1.50E−05 μg/mL + venetoclax 10.0 μM) was 0.000163 µg/mL. For the same substance, the “Theoretical MOR00208 Dose” value (Exp 1, same effect as MOR00208 1.50E−06 μg/mL + venetoclax 10.0 μM) was 2.33e-05 µg/mL, the “Actual MOR00208 Effect” value (Exp 2, MOR00208 1.50E+00 μg/mL) was 74.8 % dead cells and the “Actual MOR00208 Effect” value (Exp 2, MOR00208 1.50E−02 μg/mL) was 69.6 % dead cells. The “Actual MOR00208 Effect” value (Exp 2, MOR00208 1.50E−03 μg/mL) was 55.9 % dead cells, the “Actual MOR00208 Effect” value (Exp 2, MOR00208 1.50E−04 μg/mL) was 40.3 % dead cells and the “Actual MOR00208 Effect” value (Exp 2, MOR00208 1.50E−05 μg/mL) was 34.5 % dead cells. The “Actual MOR00208 Effect” value (Exp 2, MOR00208 1.50E−06 μg/mL) was 29.7 % dead cells, the “Theoretical MOR00208 Dose” value (Exp 2, same effect as MOR00208 1.50E+00 μg/mL + venetoclax 3.0 μM) was “* 1.00E+03^ μg/mL” and the “Theoretical MOR00208 Dose” value (Exp 2, same effect as MOR00208 1.50E+00 μg/mL + venetoclax 6.5 μM) was “* 1.00E+03^ μg/mL”. The “Theoretical MOR00208 Dose” value (Exp 2, same effect as MOR00208 1.50E+00 μg/mL + venetoclax 10.0 μM) was “* 1.00E+03^ μg/mL”, the “Theoretical MOR00208 Dose” value (Exp 2, same effect as MOR00208 1.50E−02 μg/mL + venetoclax 3.0 μM) was “* 1.00E+03^ μg/mL” and the “Theoretical MOR00208 Dose” value (Exp 2, same effect as MOR00208 1.50E−02 μg/mL + venetoclax 6.5 μM) was “* 1.00E+03^ μg/mL”. The “Theoretical MOR00208 Dose” value (Exp 2, same effect as MOR00208 1.50E−02 μg/mL + venetoclax 10.0 μM) was “* 1.00E+03^ μg/mL”, the “Theoretical MOR00208 Dose” value (Exp 2, same effect as MOR00208 1.50E−03 μg/mL + venetoclax 3.0 μM) was 0.00188 µg/mL and the “Theoretical MOR00208 Dose” value (Exp 2, same effect as MOR00208 1.50E−03 μg/mL + venetoclax 6.5 μM) was 0.01 µg/mL.
